This note sets out measurements from PMC10788856, “Mimicking Nonribosomal Peptides from the Marine Actinomycete Streptomyces sp. H-KF8 Leads to Antimicrobial Peptides” (ACS Infectious Diseases, 2023).

Numbered stars: 1 amine (or outer) side, 2 acyl side, 3 side chain; on linkers, the order of the positions; unused ones are H or OH. Bridge positions count the residues as written; N and C are the ends. Square brackets hold non-standard residues; d marks the D form. Peptide text beside a SMILES is read from it. Tyr(3-NO2) = N[C@@H](Cc1ccc(O)c([N+](=O)[O-])c1)C(=O)O; Glutaryl = O=C(CCCC(=O)[*:2])[*:1]; Orn = NCCC[C@H](N)C(=O)O

Series [1] relates to E. coli MC4100 pABCON2-fhuA ΔC/Δ4L. Kind of series: DiSC(3)5 microscopy (membrane potential), outer membrane permeable strain. The series is classed as cell-based. The note with it: 1× MIC; 10 and 60 min; 0.5 μM DiSC(3)5.
Excerpt: To test this hypothesis, we employed an E. coli strain that overexpresses the outer membrane porin FhuA, making these cells more permeable to most fluorescence dyes including DiSC(3)5.[41]
Series [2] deals with hepatoblastoma (HepG2) cells. The class given is cell-based, human. The procedure: To confirm the peptide selectivity toward bacteria cells, cytotoxicity assays of synthesized peptides L2, L3, L3-K, and C3 against human embryonic kidney (HEK) and hepatoblastoma (HepG2) were performed (Figure 4). The cell viability was assessed using resazurin 24 h post peptide exposure. The line at 70% cell viability marks out the threshold for cytotoxic potential compared to the negative control.
Figure 4 Cell viability assessment using the resazurin assay 24 h post peptide exposure: (a) HepG2 and (b) HEK cells were treated with various concentrations of the peptides C3, L3, L3-K, and L2. Triton-X was used as a positive control. Cells cultured in pure cell media were used as negative controls and were considered to have 100% cell viability. The line represents the threshold for cytotoxicity level of 70% of cell viability compared to the negative control. Data are presented as the mean ± SD of three biological replicates of the HepG2 cells and the mean ± SD of two biological replicates of the HEK cells.
Cytotoxicity against human embryonic kidney (HEK) and hepatoblastoma (HepG2) cell lines was assessed. Cells were grown to an initial seeding density of 10 000 cells per well. Metabolic activity was determined in a resazurin-based assay. HEK and HepG2 cells were exposed to four different concentrations of the peptides for 24 h. Treatment with Triton X-100 at 1% v/v was used as a positive control. Following this exposure period, the cells were treated with resazurin at a final concentration of 0.015 mg/mL for 3 h. The metabolic activity was then determined in an resazurin-based assay. The fluorescence intensities were quantified in a Hidex Sense microplate reader using an excitation wavelength of 544 nm and an emission wavelength of 590 nm.

Series [3] deals with E. coli CCUG31246. Kind of series: Propidium iodide staining (pore formation). The series is classed as cell-based. The procedure: Due to the overall similarity of the peptides’ cytological profiles to that of polymyxin B, we further tested their ability to form pores in the cell membrane. To this end, we used the fluorescence probe propidium iodide, which cannot cross intact membranes but can enter cells through pores of sufficient size.[39]
Pore formation was investigated with the fluorescence dye propidium iodide as described previously[56] with minor modifications. E. coli CCUG31246 was grown to an OD600 of 0.3 and subsequently treated with different peptides for 10 and 60 min. Samples were stained with 1 μg/mL propidium iodide for 15 min (added 5 min before adding antibiotics for the 10 min time point and after 45 min of antibiotic treatment for the 60 min time point), spotted on 1.2% agarose films, and sealed with a gene frame. Microscopy was performed as described above. The fluorescence intensity of the different samples was analyzed with MicrobeJ. For detection of bacterial cells from phase contrast images, parameters were set to an area of 1.5-max, length of 1-max, width 0.5–2.5, curvature 0–1.5, and an angularity of 0–0.5. Fluorescence intensity parameters were set to an area of 1.5-max, length of 1-max, and width 0.5–2.5. All other parameters remained at default settings.

A further series concerns C. albicans. Kind of series: microbe, parasite or virus in culture. The note with it: 16 h. The class given is cell-based.
The test system of series [4] is E. coli CCUG31246. The series is classed as cell-based. The note with it: E. coli CCUG31246; 1:10 BHI; 5 × 10^5 CFU/mL; 37 °C, 16 h, steady agitation; used as 1× MIC.
The test system of series [5] is E. coli CCUG31246. Nature of the series: DiSC(3)5 microscopy (membrane potential). The class given is cell-based. The note with it: 0.5 μM DiSC(3)5. From the text:
Propidium iodide is a large organic molecule that is not suitable to detect smaller ion-conducting pores or channels induced by antimicrobials. To assess whether the peptides may form smaller membrane pores sufficient for the passage of ions, we tested their effects on the membrane potential using the fluorescence probe DiSC(3)5.[40] This dye accumulates in the cell membrane in a membrane potential-dependent manner and disassociates, when the membrane potential is dissipated. […] This effect can be clearly seen with polymyxin B (Figure 7b).
The membrane potential of E. coli CCUG31246 and E. coli MC4100 carrying pABCON2-fhuA ΔC/Δ4L was measured by DiSC(3)5 microscopy according to ref. ([40]) with minor modifications. Cells were grown in 1:10 BHI containing 50 μg/mL bovine serum albumin to an OD600 of 0.3 prior to antibiotic treatment with the respective peptides for 10 and 60 min. Samples were stained with 0.5 μM DiSC(3)5 for 15 min (added 5 min before adding antibiotics for the 10 min time point and after 45 min of antibiotic treatment for the 60 min time point). Stained samples were spotted on 1.2% agarose, sealed with a gene frame, and imaged immediately. Microscopy was performed as described above, and fluorescence intensity was analyzed with the same parameters used for propidium iodide detection.

As for `CC(C)[C@H]1NC(=O)[C@H](CCCN)NC(=O)[C@H]([C@@H](C)O)NC(=O)[C@H](CCCN)NC(=O)[C@H](Cc2c[nH]c3ccccc23)NC(=O)[C@@H](C)NC(=O)[C@@H](C(C)C)NC(=O)[C@@H](C)NC(=O)[C@H](Cc2c[nH]c3ccccc23)NC(=O)CCCC(=O)NCCCC[C@@H](C(N)=O)NC(=O)[C@H](Cc2ccc(O)c([N+](=O)[O-])c2)NC1=O` [C3] (W[dA][dV][dA]W[Orn]T[Orn][dV][Tyr(3-NO2)]K-NH2; linker N-11 via Glutaryl), the “membrane depolarization in the FhuA-overexpressing strain” value in series [1] is on record as “stronger depolarization in the FhuA-overexpressing strain”. Moreover, the “cytotoxicity, cell viability HepG2” value in series [2] is on record as “at the highest tested concentration seems to have cytotoxic properties”. In addition, in the series with E. coli CCUG31246 [3] (1× MIC (64 μg/mL L3, 128 μg/mL L3-K, 512 μg/mL C3), 60 min, 1 μg/mL propidium iodide), the “cells remaining unstained by propidium iodide after 60 min” value worked out at 64%. Also, the “propidium iodide uptake” value in the series with E. coli CCUG31246 [3] (1× MIC of peptide, polymyxin B 10 μg/mL, 10 and 60 min) is “only a small subpopulation of cells”. Further, the “C. albicans MIC” value in the series with C. albicans is above 512 µg/mL. The “MIC obtained for mechanistic experiments” value in the series on E. coli CCUG31246 [4] turned out to be 512 µg/mL. Also, the “membrane potential, DiSC(3)5 fluorescence, 10 min” value with E. coli CCUG31246 [5] (1× MIC of peptide, polymyxin B 10 μg/mL, 10 min) is “no effect on the membrane potential”. Moreover, in the series with E. coli CCUG31246 [5] (1× MIC, 60 min), the “membrane potential, DiSC(3)5 fluorescence, 60 min” value is “partial depolarization”.
